Reference: US9428508B2, “2,4-diamino-6,7-dihydro-5H-pyrrolo[2,3]pyrimidine derivatives as FAK/Pyk2 inhibitors” (Centaurus BioPharma Co., Ltd., priority 2011, dated 2016)

Key:
[1] = target: FAK (Homo sapiens (Human), UniProt Q05397); assay: Biochemical assay for FAK activity (LANCE TR-FRET, ULight-poly Glu,Ala,Tyr substrate); conditions: GST-tagged FAK, 120 min reaction
Description: (§1) Biochemical Assay for FAK/Pyk2 Activity
(§2) GST-tagged FAK was purchased from Invitrogen (PV3832). GST-tagged PYK2 was purchased from Invitrogen (PV4567). The activity of FAK/PYK2 was measured by monitoring the phosphorylation of a fluorophore labeled ULight-poly Glu, Ala, Tyr (1:1:1) peptide substrate from Perkin Elmer (TRF0101) in the presence of ATP. The phosphorylated tyrosine residue was recognized by a LANCE Europium chelate labeled anti-phosphotyrosine (PY20) antibody from Perkin Elmer (AD0066). This brought the fluorophore and europium chelate in close proximity ([…]) that upon excitation at 320 nm by an Envision (PerkinElmer), energy can be transferred from the donor Europium chelate to the acceptor fluorophore. […] The strength of the signal was, therefore, directly proportional to the FAK/PYK2 activity.
(§3) To measure inhibitory activity of FAK/PYK2 inhibitors, compounds were first prepare as a 1 mM stock in 100% DMSO and 3-fold serial dilution was performed in a 96-well plate (Corning, 3897) to generate 12 different concentration of 100× stock. A 5 μl of 100× stock of each concentration was added to wells containing 95 μl of 1× reaction buffer (40 mM Tris, pH7.5, […], 1 mM DTT and 1 mM CHAPS) to generate 5× stock. Then 2 μl of 5× stock of each concentration was added to a 384 wells-OptiPlate (PerkinElmer, 6007299).
(§4) For FAK, 4 μl of 2.5 nM FAK, 1 ul of 8 μg/μl BSA and 1.5 μl of 666 nM ULight-poly Glu, Ala, Tyr (1:1:1) peptide substrate, prepared in above reaction buffer, were added to each well. The reaction was initiated by adding 1.5 μl of 33.3 μM ATP. The reaction was allowed to proceed for 120 min before being quenched with 5 μl of 40 mM EDTA stop buffer prepared in 1×LANCE detection buffer (PerkinElmer, CR97-100).
(§5) Upon quenching of the reaction, 5 μl of 8 nM anti-phosphotyrosine antibody was added to each well and incubated for 60 minutes. The plate was measured using an Envision (PerkinElmer) based on the theory mentioned above.

[2] = target: PYK2 (Homo sapiens (Human), UniProt Q14289); assay: Biochemical assay for PYK2 activity (LANCE TR-FRET, ULight-poly Glu,Ala,Tyr substrate); conditions: GST-tagged PYK2, 40 min reaction
Description: as §1, §2, §3
as §4, with “PYK2, 5” for “FAK, 4”, “2” for “2.5”, “PYK2” for “FAK, 1 ul of 8 μg/μl BSA”, “46.6” for “33.3”, “40” for “120”
as §5

PYK2, sequence (Q14289 whole entry): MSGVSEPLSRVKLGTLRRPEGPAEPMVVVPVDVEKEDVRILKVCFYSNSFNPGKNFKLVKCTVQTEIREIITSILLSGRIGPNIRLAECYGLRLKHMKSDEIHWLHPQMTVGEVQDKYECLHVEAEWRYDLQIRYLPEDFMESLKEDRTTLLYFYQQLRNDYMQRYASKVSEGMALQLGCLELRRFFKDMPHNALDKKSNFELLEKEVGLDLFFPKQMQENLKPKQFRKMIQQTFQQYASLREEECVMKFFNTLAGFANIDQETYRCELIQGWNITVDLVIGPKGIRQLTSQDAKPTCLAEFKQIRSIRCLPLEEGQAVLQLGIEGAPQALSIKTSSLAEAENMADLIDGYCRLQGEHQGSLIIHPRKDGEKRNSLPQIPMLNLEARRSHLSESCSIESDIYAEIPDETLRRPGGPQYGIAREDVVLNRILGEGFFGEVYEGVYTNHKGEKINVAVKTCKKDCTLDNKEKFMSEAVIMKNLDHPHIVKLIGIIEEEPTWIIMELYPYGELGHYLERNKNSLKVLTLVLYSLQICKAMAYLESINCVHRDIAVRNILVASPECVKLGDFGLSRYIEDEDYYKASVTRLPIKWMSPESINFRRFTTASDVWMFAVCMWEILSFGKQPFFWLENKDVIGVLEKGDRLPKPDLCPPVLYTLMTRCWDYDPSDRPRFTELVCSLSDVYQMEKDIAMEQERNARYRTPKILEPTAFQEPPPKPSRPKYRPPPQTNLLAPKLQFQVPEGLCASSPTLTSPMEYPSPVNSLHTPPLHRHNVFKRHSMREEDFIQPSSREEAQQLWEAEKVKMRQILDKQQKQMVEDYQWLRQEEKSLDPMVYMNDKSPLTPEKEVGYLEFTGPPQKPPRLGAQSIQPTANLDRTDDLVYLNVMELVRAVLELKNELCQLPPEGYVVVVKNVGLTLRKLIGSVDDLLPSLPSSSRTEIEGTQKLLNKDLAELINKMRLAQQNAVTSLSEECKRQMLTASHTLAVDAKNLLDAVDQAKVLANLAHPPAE
FAK, sequence (Q05397 whole entry): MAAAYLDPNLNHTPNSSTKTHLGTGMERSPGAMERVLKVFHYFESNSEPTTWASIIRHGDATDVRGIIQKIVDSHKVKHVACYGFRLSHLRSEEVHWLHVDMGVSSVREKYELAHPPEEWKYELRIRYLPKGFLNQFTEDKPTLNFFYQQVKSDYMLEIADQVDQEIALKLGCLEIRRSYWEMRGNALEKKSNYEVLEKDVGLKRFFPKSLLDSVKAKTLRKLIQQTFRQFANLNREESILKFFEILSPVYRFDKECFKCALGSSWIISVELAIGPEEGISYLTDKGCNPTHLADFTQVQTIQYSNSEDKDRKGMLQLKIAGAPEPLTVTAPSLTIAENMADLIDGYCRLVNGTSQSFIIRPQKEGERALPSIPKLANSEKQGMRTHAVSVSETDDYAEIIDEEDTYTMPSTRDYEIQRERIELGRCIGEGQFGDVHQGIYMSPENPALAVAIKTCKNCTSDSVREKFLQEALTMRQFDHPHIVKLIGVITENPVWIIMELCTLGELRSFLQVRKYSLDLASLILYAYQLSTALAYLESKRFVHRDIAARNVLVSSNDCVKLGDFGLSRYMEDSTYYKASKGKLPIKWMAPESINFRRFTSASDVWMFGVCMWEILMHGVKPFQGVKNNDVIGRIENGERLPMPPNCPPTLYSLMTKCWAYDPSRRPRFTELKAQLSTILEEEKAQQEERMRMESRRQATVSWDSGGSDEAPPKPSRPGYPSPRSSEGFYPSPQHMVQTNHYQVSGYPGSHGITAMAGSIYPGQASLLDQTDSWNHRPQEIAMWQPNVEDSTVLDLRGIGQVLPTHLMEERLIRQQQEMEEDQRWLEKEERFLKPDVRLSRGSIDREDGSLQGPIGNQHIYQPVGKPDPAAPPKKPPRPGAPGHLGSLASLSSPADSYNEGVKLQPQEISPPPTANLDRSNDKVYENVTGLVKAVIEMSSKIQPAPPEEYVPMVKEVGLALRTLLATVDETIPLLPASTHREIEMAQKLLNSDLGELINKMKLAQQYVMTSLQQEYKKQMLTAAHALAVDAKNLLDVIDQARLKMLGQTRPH

SMILES	IC50 [1]	IC50 [2]
COc1cc(N2CCOCC2)ccc1Nc1nc2c(c(Nc3ccccc3NC(C)=O)n1)CCN2 [Example 9, N-(2-(2-(2-methoxy-4-morpholinophenylamino)-6,7-dihydro-5H-pyrrolo[2,3-d]pyrimidin-4-ylamino)phenyl)acetamide]	< 1000 nM	< 1000 nM
COc1cc(N2CCOCC2)ccc1Nc1nc2c(c(Nc3ccccc3N(C)S(C)(=O)=O)n1)CCN2 [Example 10, N-(2-(2-(2-methoxy-4-morpholinophenylamino)-6,7-dihydro-5H-pyrrolo[2,3-d]pyrimidin-4-ylamino)phenyl)-N-methylmethanesulfonamide]	< 100 nM	< 50 nM
COc1cc(N2CCOCC2)ccc1Nc1nc2c(c(NCc3ccccc3N(C)S(C)(=O)=O)n1)CCN2 [Example 11, N-(2-((2-(2-methoxy-4-morpholinophenylamino)-6,7-dihydro-5H-pyrrolo[2,3-d]pyrimidin-4-ylamino)methyl)phenyl)-N-methylmethanesulfonamide]	< 100 nM	> 2000 nM
COc1cc(N2CCOCC2)ccc1Nc1nc2c(c(Nc3cccc(C)n3)n1)CCN2 [Example 12, N^2-(2-methoxy-4-morpholinophenyl)-N^4-(6-methylpyridin-2-yl)-6,7-dihydro-5H-pyrrolo[2,3-d]pyrimidine-2,4-diamine]	< 100 nM	< 100 nM
CNC(=O)c1ccccc1Nc1nc(Nc2ccc(N3CCOCC3)cc2CO)nc2c1CCN2 [Example 14, 2-(2-(2-(hydroxymethyl)-4-morpholinophenylamino)-6,7-dihydro-5H-pyrrolo[2,3-d]pyrimidin-4-ylamino)-N-methylbenzamide]	> 1000 nM	> 1000 nM
CNC(=O)c1ccccc1Nc1nc(Nc2cccc3c2OCCO3)nc2c1CCN2 [Example 15, 2-(2-(2,3-dihydrobenzo[b][1,4]dioxin-5-ylamino)-6,7-dihydro-5H-pyrrolo[2,3-d]pyrimidin-4-ylamino)-N-methylbenzamide]	< 500 nM	< 500 nM
CNC(=O)c1ccccc1Nc1nc(Nc2ccc(N3CCOCC3)c3c2OCCO3)nc2c1CCN2 [Example 16, N-methyl-2-(2-(8-morpholino-2,3-dihydrobenzo[b][1,4]dioxin-5-ylamino)-6,7-dihydro-5H-pyrrolo[2,3-d]pyrimidin-4-ylamino)benzamide]	< 500 nM	< 200 nM
CCN1C(=O)CCCc2c1ccc(Nc1nc3c(c(Nc4ccccc4C(=O)NC)n1)CCN3)c2OC [Example 17, 2-(2-(1-ethyl-6-methoxy-2-oxo-2,3,4,5-tetrahydro-1H-benzo[b]azepin-7-ylamino)-6,7-dihydro-5H-pyrrolo[2,3-d]pyrimidin-4-ylamino)-N-methylbenzamide]	< 1000 nM	< 200 nM
CNC(=O)c1ccccc1Nc1nc(Nc2cccc3ccoc23)nc2c1CCN2 [Example 19, 2-(2-(benzofuran-7-ylamino)-6,7-dihydro-5H-pyrrolo[2,3-d]pyrimidin-4-ylamino)-N-methylbenzamide]	< 200 nM	< 100 nM
CNC(=O)c1ccccc1Nc1nc(Nc2cc(C)nn2C)nc2c1CCN2 [Example 20, 2-(2-(1,3-dimethyl-1H-pyrazol-5-ylamino)-6,7-dihydro-5H-pyrrolo[2,3-d]pyrimidin-4-ylamino)-N-methylbenzamide]	< 1000 nM	< 500 nM
CNC(=O)c1ccccc1Nc1nc(Nc2cc(OC)c(OC)c(OC)c2)nc2c1CCN2 [Example 21, N-methyl-2-(2-(3,4,5-trimethoxyphenylamino)-6,7-dihydro-5H-pyrrolo[2,3-d]pyrimidin-4-ylamino)benzamide]	< 1000 nM	< 300 nM
CNC(=O)c1ccccc1Nc1nc(Nc2cccc3c2ccn3CCCN2CCOCC2)nc2c1CCN2 [Example 22, N-methyl-2-(2-(1-(3-morpholinopropyl)-1H-indol-4-ylamino)-6,7-dihydro-5H-pyrrolo[2,3-d]pyrimidin-4-ylamino)benzamide]	< 100 nM	< 200 nM
CNC(=O)c1ccccc1Nc1nc(Nc2ccc(N3CCOCC3)cc2OC)nc2c1[C@H](C)CN2 [Example 35, (S)-2-(2-(2-methoxy-4-morpholinophenylamino)-5-methyl-6,7-dihydro-5H-pyrrolo[2,3-d]pyrimidin-4-ylamino)-N-methylbenzamide]	< 20 nM	< 20 nM
COc1cc(N2CCOCC2)ccc1Nc1nc2c(c(Nc3ccccc3S(=O)(=O)NC3CCC3)n1)[C@H](C)CN2 [Example 36, (S)—N-cyclobutyl-2-(2-(2-methoxy-4-morpholinophenylamino)-5-methyl-6,7-dihydro-5H-pyrrolo[2,3-d]pyrimidin-4-ylamino)benzenesulfonamide]	< 20 nM	< 20 nM
CNC(=O)c1ccccc1Nc1nc(Nc2ccc(N3CCOCC3)cc2OC)nc2c1C(C)(C)CN2 [Example 37, 2-(2-(2-methoxy-4-morpholinophenylamino)-5,5-dimethyl-6,7-dihydro-5H-pyrrolo[2,3-d]pyrimidin-4-ylamino)-N-methylbenzamide]	< 20 nM	< 20 nM
COc1cc(N2CCOCC2)ccc1Nc1nc2c(c(Nc3ccccc3S(=O)(=O)N(C)C)n1)CCN2 [Example 38, 2-(2-(2-methoxy-4-morpholinophenylamino)-6,7-dihydro-5H-pyrrolo[2,3-d]pyrimidin-4-ylamino)-N,N-dimethylbenzenesulfonamide]	< 50 nM	< 200 nM
CCCCNS(=O)(=O)c1ccccc1Nc1nc(Nc2ccc(N3CCOCC3)cc2OC)nc2c1CCN2 [Example 39, N-butyl-2-(2-(2-methoxy-4-morpholinophenylamino)-6,7-dihydro-5H-pyrrolo[2,3-d]pyrimidin-4-ylamino)benzenesulfonamide]	< 50 nM	< 100 nM
COc1cc(N2CCOCC2)ccc1Nc1nc2c(c(Nc3ccccc3S(=O)(=O)NC(C)C)n1)CCN2 [Example 40, N-isopropyl-2-(2-(2-methoxy-4-morpholinophenylamino)-6,7-dihydro-5H-pyrrolo[2,3-d]pyrimidin-4-ylamino)benzenesulfonamide]	< 20 nM	< 20 nM
COc1cc(N2CCOCC2)ccc1Nc1nc2c(c(Nc3ccccc3S(N)(=O)=O)n1)CCN2 [Example 41, 2-(2-(2-methoxy-4-morpholinophenylamino)-6,7-dihydro-5H-pyrrolo[2,3-d]pyrimidin-4-ylamino)benzenesulfonamide]	< 50 nM	< 200 nM
COc1cc(N2CCOCC2)ccc1Nc1nc2c(c(Nc3ccccc3S(=O)(=O)NC3CC3)n1)CCN2 [Example 42, N-cyclopropyl-2-(2-(2-methoxy-4-morpholinophenylamino)-6,7-dihydro-5H-pyrrolo[2,3-d]pyrimidin-4-ylamino)benzenesulfonamide]	< 20 nM	< 50 nM
CCNS(=O)(=O)c1ccccc1Nc1nc(Nc2ccc(N3CCOCC3)cc2OC)nc2c1CCN2 [Example 43, N-ethyl-2-(2-(2-methoxy-4-morpholinophenylamino)-6,7-dihydro-5H-pyrrolo[2,3-d]pyrimidin-4-ylamino)benzenesulfonamide]	< 100 nM	< 20 nM
CCC(C)NS(=O)(=O)c1ccccc1Nc1nc(Nc2ccc(N3CCOCC3)cc2OC)nc2c1CCN2 (stereo not drawn) [Example 44, N-sec-butyl-2-(2-(2-methoxy-4-morpholinophenylamino)-6,7-dihydro-5H-pyrrolo[2,3-d]pyrimidin-4-ylamino)benzenesulfonamide]	< 20 nM	< 20 nM
COc1cc(N2CCOCC2)ccc1Nc1nc2c(c(Nc3ccccc3S(=O)(=O)NCC(C)C)n1)CCN2 [Example 45, N-isobutyl-2-(2-(2-methoxy-4-morpholinophenylamino)-6,7-dihydro-5H-pyrrolo[2,3-d]pyrimidin-4-ylamino)benzenesulfonamide]	< 100 nM	< 100 nM
COc1cc(N2CCOCC2)ccc1Nc1nc2c(c(Nc3ccccc3S(=O)(=O)NC(C)(C)C)n1)CCN2 [Example 47, N-tert-butyl-2-(2-(2-methoxy-4-morpholinophenylamino)-6,7-dihydro-5H-pyrrolo[2,3-d]pyrimidin-4-ylamino)benzenesulfonamide]	< 200 nM	< 100 nM
